The text below walks through data of US20130109682A1, “CYCLIC ETHER COMPOUNDS USEFUL AS KINASE INHIBITORS” (NOVARTIS AG, priority 2010, published 2013).

Test [1] deals with T1, PIM2 (Homo sapiens, UniProt Q9P1W9). Kind of test: Pim 2 AlphaScreen assay (high ATP). It counts as biochemical. The following applies: read-out: Pim2 IC50. The protocol:
Pim1, Pim2, Pim3 AlphaScreen Assay Pim 1, Pim 2 & Pim 3 AlphaScreen assays using high ATP (11-125×ATP Km) were used to determine the biochemical activity of the inhibitors. The activity of Pim 1, Pim 2, & Pim 3 is measured using a homogeneous bead based system quantifying the amount of phosphorylated peptide substrate resulting from kinase-catalyzed phosphoryl transfer to a peptide substrate. Compounds to be tested are dissolved in 100% DMSO and directly distributed to a white 384-well plate at […] per well. To start the reaction, 5 μl of 100 nM Bad peptide (Biotin-AGAGRSRHSSYPAGT —OH) and ATP (concentrations described below) in assay buffer (50 mM Hepes, pH=7.5, 5 mM MgCl2, 0.05% BSA, 0.01% Tween-20, 1 mM DTT) is added to each well. This is followed by the addition of 5 μl/well of Pim 1, Pim 2 or Pim 3 kinase in assay buffer (concentrations described below). Final assay concentrations (described below) are in 2.5% DMSO. The reactions are performed for ˜2 hours, then stopped by the addition of 10 μl of 0.75 μg/ml anti-phospho Ser/Thr antibody (Cell Signaling), 10 μg/ml Protein A AlphaScreen beads (Perkin Elmer), and 10 μg/ml streptavidin coated AlphaScreen beads in stop/detection buffer (50 mM EDTA, 95 mM Tris, pH=7.5, 0.01% Tween-20). The stopped reactions are incubated overnight in the dark. The phosphorylated peptide is detected via an […] initiated chemiluminescence/fluorescence cascade using the Envision plate reader (Perkin Elmer).
IC50, the half maximal inhibitory concentration, represents the concentration of a test compound that is required for 50% inhibition of its target in vitro under the described assay conditions.

Test [2] concerns the target T1, PIM2. Kind of test: KinaseGlo Pim2 ATP depletion assay. It counts as biochemical. The method, boiled down: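 Compound sat 15 min with enzyme and BAD peptide before ATP was added; final levels 5 nM PIM2, 10 μM peptide, 4 μM ATP, 2.5% DMSO, pH 7.5 HEPES buffer with MgCl2, DTT, BSA. Stopped near 50% ATP consumption; remaining ATP measured by luciferase luminescence.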

The test system of test [3] is KMS11 (human myeloma cell line). The test is described as follows: Cell proliferation assay (CellTiter-Glo), KMS11. It counts as cell-based. Conditions: Homo sapiens, KMS-11; KMS11-Luc cells. The gist of the method: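 EC50 derived from CellTiter-Glo luminescence after 3-day exposure at 37° C. Compound was diluted to 2× in medium and added to an equal volume of cells. KMS11 myeloma cells were plated on assay day at 2000/well in IMDM with 10% FBS and sodium pyruvate.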

The target in a further test is PIM1 (Homo sapiens, UniProt P11309). Kind of test: KinaseGlo Pim1 ATP depletion assay. It counts as biochemical. The gist of the method: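 IC50 is derived from residual ATP measured by KinaseGlo Plus luminescence once about half the ATP was consumed. Final conditions were 20 μM ATP, 40 μM BAD peptide and 2.5 nM kinase in HEPES pH 7.5 buffer with MgCl2, DTT and BSA, plus 2.5% DMSO. Compound and enzyme were premixed 15 min before ATP addition.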

A further test deals with PIM3 (Homo sapiens, UniProt Q86V86). Kind of test: KinaseGlo Pim3 ATP depletion assay. It counts as biochemical. The gist of the method: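 Residual ATP was detected by luciferase luminescence once about half had been consumed. The reaction contained 5 nM enzyme, 100 μM BAD peptide (RSRHSSYPAGT) and 40 μM ATP in 50 mM HEPES pH 7.5, 5 mM MgCl2, 1 mM DTT and 0.05% BSA with 2.5% DMSO. Compound and enzyme/peptide were premixed 15 min before ATP.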

The target of another test is GSK3β (Homo sapiens, UniProt P49841). The test is described as follows: GSK3β ATP depletion assay. It counts as biochemical. Conditions: read-out: GSK3b IC50. The method, boiled down: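 Kinase activity is read as ATP consumption: luciferase luminescence reports the ATP remaining once roughly half of the 2 μM ATP is used. Reaction mix: 5 nM GSK3β, 10 μM b-CREB peptide, 50 mM Tris pH 7.5, 15 mM MgCl2, 1 mM DTT, 0.1% BSA, 2.5% DMSO. Enzyme and peptide are preincubated 15 min before ATP is added.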
GSK3β, sequence (P49841 whole entry, species assumed): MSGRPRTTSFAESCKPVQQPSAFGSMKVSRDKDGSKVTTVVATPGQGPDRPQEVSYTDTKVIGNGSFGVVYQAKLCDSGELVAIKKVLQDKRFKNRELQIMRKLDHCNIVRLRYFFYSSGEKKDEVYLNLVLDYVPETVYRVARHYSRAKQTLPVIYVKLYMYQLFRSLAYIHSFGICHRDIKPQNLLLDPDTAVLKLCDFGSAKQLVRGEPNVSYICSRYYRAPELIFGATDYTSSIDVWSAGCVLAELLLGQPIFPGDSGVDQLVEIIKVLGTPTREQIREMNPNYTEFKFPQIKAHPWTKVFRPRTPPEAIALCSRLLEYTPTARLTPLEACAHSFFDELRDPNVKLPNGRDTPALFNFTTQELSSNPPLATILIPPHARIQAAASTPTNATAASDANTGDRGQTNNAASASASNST

T1 sequence (Q9P1W9 whole entry): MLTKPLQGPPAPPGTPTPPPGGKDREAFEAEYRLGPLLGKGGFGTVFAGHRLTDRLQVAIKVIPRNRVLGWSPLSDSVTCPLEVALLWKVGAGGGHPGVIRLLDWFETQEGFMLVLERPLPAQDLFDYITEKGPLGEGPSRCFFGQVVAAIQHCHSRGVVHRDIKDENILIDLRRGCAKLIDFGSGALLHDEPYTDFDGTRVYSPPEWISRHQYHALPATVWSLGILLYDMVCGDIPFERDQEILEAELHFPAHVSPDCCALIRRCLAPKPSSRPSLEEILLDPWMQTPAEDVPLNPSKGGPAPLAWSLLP
PIM1, sequence (P11309 whole entry): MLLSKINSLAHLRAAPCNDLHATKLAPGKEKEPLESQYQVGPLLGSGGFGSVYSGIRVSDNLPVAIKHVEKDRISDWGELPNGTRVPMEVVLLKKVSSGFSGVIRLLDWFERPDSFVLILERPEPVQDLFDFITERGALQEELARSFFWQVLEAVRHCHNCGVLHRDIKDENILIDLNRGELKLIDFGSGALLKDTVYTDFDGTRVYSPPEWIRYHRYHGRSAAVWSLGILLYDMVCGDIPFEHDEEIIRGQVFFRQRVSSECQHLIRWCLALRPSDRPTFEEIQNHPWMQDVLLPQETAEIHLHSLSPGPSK

Turning to `CC[C@@H]1O[C@H](c2ccncc2NC(=O)c2ccc(F)c(-c3c(F)cccc3F)n2)C[C@H](O)[C@@]1(C)O` [Example 163, 6-(2,6-difluorophenyl)-N-(4-((2S,4S,5R,6S)-6-ethyl-4,5-dihydroxy-5-methyltetrahydro-2H-pyran-2-yl)pyridin-3-yl)-5-fluoropicolinamide], on PIM2 [1], the IC50 was determined as 7490 nM.

In the case of `O=C(Nc1cnccc1[C@H]1C[C@@H](O)[C@@]2(O)CCC[C@H]2O1)c1ccnn(-c2ccccc2F)c1=O` [Example 201, N-(4-((2R,4R,4aS,7aR)-4,4a-dihydroxyoctahydrocyclopenta[b]pyran-2-yl)pyridin-3-yl)-2-(2-fluorophenyl)-3-oxo-2,3-dihydropyridazine-4-carboxamide], the half-inhibitory concentration (IC50) against PIM2 [2] is 3210 nM; against PIM1, 149 nM; against PIM3, 132 nM; on GSK3β, 383 nM. Further, the EC50 in test [3] is more than 10000 nM.

For `CC[C@H]1O[C@@H](c2ccncc2NC(=O)c2c[nH]cc(-c3ccccc3F)c2=O)C[C@@H](O)[C@@H]1O` [Example 202, N-(4-((2R,4R,5S,6R)-6-ethyl-4,5-dihydroxytetrahydro-2H-pyran-2-yl)pyridin-3-yl)-5-(2-fluorophenyl)-4-oxo-1,4-dihydropyridine-3-carboxamide], the IC50 worked out at 6910 nM against PIM2 [2], 754 nM on PIM1, 1100 nM against PIM3 and 4400 nM at GSK3β. Further, in test [3], the EC50 is more than 10000 nM.

Take `O=C(Nc1cnccc1[C@@H]1C[C@H](O)[C@]2(O)CCC[C@@H]2O1)c1ccnn(-c2ccccc2F)c1=O` [Example 203, N-(4-((2S,4S,4aR,7aS)-4,4a-dihydroxyoctahydrocyclopenta[b]pyran-2-yl)pyridin-3-yl)-2-(2-fluorophenyl)-3-oxo-2,3-dihydropyridazine-4-carboxamide]: the IC50 at PIM2 [2] is more than 250000 nM; at PIM1, 6610 nM; against PIM3, 23800 nM; on GSK3β, 543 nM. Moreover, in test [3], the EC50 is more than 10000 nM.

Turning to `O=C(Nc1cnccc1[C@H]1C[C@@H](O)[C@@]2(O)CCC[C@H]2O1)c1ccc(F)c(-c2c(F)cccc2F)n1` [Example 204, 6-(2,6-difluorophenyl)-N-(4-((2R,4R,4aS,7aR)-4,4a-dihydroxyoctahydrocyclopenta[b]pyran-2-yl)pyridin-3-yl)-5-fluoropicolinamide], the IC50 on PIM2 [2] was found to be 2.8 nM; at PIM1, 0.5 nM; against PIM3 it was 2 nM; at GSK3β, 46.2 nM. For the same compound, the response in test [3] was half-maximal at 5310 nM (EC50).

For the compound `Nc1cnc(-c2c(F)cccc2F)nc1C(=O)Nc1cnccc1[C@@H]1C[C@H](O)[C@@H](O)[C@H](C2CC2)O1` [Example 205, 5-amino-N-(4-((2S,4S,5R,6S)-6-cyclopropyl-4,5-dihydroxytetrahydro-2H-pyran-2-yl)pyridin-3-yl)-2-(2,6-difluorophenyl)pyrimidine-4-carboxamide], the IC50 against PIM2 [2] was found to be 45.4 nM; on PIM1, 37.3 nM; on PIM3, 69.7 nM; at GSK3β, 1870 nM. The same compound had an EC50 in test [3] of more than 10000 nM.

For the compound `O=C(Nc1cnccc1[C@@H]1C[C@H](O)[C@@H](O)[C@H](C2CC2)O1)c1cccc(-c2c(F)cccc2F)n1` [Example 206, N-(4-((2S,4S,5R,6S)-6-cyclopropyl-4,5-dihydroxytetrahydro-2H-pyran-2-yl)pyridin-3-yl)-6-(2,6-difluorophenyl)picolinamide], the IC50 at PIM2 [2] worked out at 33.8 nM; against PIM1, 19.9 nM; on PIM3, 20.2 nM; on GSK3β, 1920 nM. The compound further displayed an EC50 in test [3] of more than 10000 nM.

For the compound `Nc1cnc(-c2c(F)cccc2F)nc1C(=O)Nc1cnccc1[C@H]1C[C@@H](O)[C@H](O)[C@@H](C2CC2)O1` [Example 207, 5-amino-N-(4-((2R,4R,5S,6R)-6-cyclopropyl-4,5-dihydroxytetrahydro-2H-pyran-2-yl)pyridin-3-yl)-2-(2,6-difluorophenyl)pyrimidine-4-carboxamide], the half-maximal inhibitory concentration (IC50) was 6 nM at PIM2 [2], 6.3 nM against PIM1, 8.5 nM against PIM3 and 572 nM on GSK3β. Also, it took 6450 nM to reach a half-maximal effect in test [3] (EC50).

On to `O=C(Nc1cnccc1[C@H]1C[C@@H](O)[C@H](O)[C@@H](C2CC2)O1)c1cccc(-c2c(F)cccc2F)n1` [Example 208, N-(4-((2R,4R,5S,6R)-6-cyclopropyl-4,5-dihydroxytetrahydro-2H-pyran-2-yl)pyridin-3-yl)-6-(2,6-difluorophenyl)picolinamide], for which the IC50 against PIM2 [2] amounted to 8.8 nM; against PIM1 it was 4.6 nM; on PIM3, 6.6 nM; on GSK3β, 796 nM. Further, the EC50 in test [3] was more than 10000 nM.

As to `O=C(Nc1cnccc1[C@@H]1C[C@H](O)[C@@H](O)[C@H](C2CC2)O1)c1ccc(F)c(-c2c(F)cccc2F)n1` [Example 209, N-(4-((2S,4S,5R,6S)-6-cyclopropyl-4,5-dihydroxytetrahydro-2H-pyran-2-yl)pyridin-3-yl)-6-(2,6-difluorophenyl)-5-fluoropicolinamide], the IC50 at PIM2 [2] was found to be 7.9 nM; at PIM1 it was 3.2 nM; against PIM3, 4.2 nM; at GSK3β it was 1060 nM. Besides, the EC50 in test [3] was 9500 nM.

For `O=C(Nc1cnccc1[C@H]1C[C@@H](O)[C@H](O)[C@@H](C2CC2)O1)c1ccc(F)c(-c2c(F)cccc2F)n1` [Example 211, N-(4-((2R,4R,5S,6R)-6-cyclopropyl-4,5-dihydroxytetrahydro-2H-pyran-2-yl)pyridin-3-yl)-6-(2,6-difluorophenyl)-5-fluoropicolinamide], the IC50 against PIM2 [2] is 3.1 nM; against PIM1, 1 nM; against PIM3, 2.2 nM; on GSK3β, 636 nM. Besides, in test [3], the EC50 amounted to 2700 nM.

With `N[C@H]1C[C@@H](c2ccncc2NC(=O)c2ccc(F)c(-c3c(F)cccc3F)n2)O[C@H]2CCC[C@]21O` [Example 212, N-(4-((2S,4S,4aR,7aS)-4-amino-4a-hydroxyoctahydrocyclopenta[b]pyran-2-yl)pyridin-3-yl)-6-(2,6-difluorophenyl)-5-fluoropicolinamide], the IC50 against PIM2 [2] was found to be 508 nM; at PIM1, 17.9 nM; at PIM3 it was 155 nM; at GSK3β, 11500 nM. The midpoint of the response in test [3], the EC50, lay at 3360 nM.

Consider `Nc1cnc(-c2c(F)cccc2F)nc1C(=O)Nc1cnccc1[C@@H]1C[C@H](N)[C@]2(O)CCC[C@@H]2O1` [Example 214, 5-amino-N-(4-((2S,4S,4aR,7aS)-4-amino-4a-hydroxyoctahydrocyclopenta[b]pyran-2-yl)pyridin-3-yl)-2-(2,6-difluorophenyl)pyrimidine-4-carboxamide], for which the IC50 was 2250 nM against PIM2 [2], 258 nM against PIM1, 373 nM against PIM3 and more than 25000 nM on GSK3β. Besides, the EC50 in test [3] was more than 10000 nM.

Regarding `Nc1ccc(-c2c(F)cccc2F)nc1C(=O)Nc1cnccc1[C@H]1C[C@@H](N)[C@@]2(O)CCC[C@H]2O1` [Example 215, 3-amino-N-(4-((2R,4R,4aS,7aR)-4-amino-4a-hydroxyoctahydrocyclopenta[b]pyran-2-yl)pyridin-3-yl)-6-(2,6-difluorophenyl)picolinamide], the IC50 is 2.6 nM against PIM2 [2], 0.6 nM on PIM1, 4 nM at PIM3 and 252 nM at GSK3β. Besides, the midpoint of the response in test [3], the EC50, lay at 800 nM.
